Patent publication US8741843B2, “Compositions and methods for inducing angiogenesis” (priority 2006, dated 2014)
“Also recorded” adds a separate entry of the source. Ends that are not written are not given here.

Experiments:
[1] = target: T1, GRP78 on endothelial cells (Homo sapiens, UniProt P11021); test: FACS competition of peptides with GRP78 polyclonal antibody on endothelial cells under hypoxia; type: binding; details: hypoxic conditions; listed as motif C
T1 construct: endogenous in cells; host or cells: HUVEC / endothelial cells from umbilical cords, under normoxia or hypoxia
T1 sequence (P11021 19-654): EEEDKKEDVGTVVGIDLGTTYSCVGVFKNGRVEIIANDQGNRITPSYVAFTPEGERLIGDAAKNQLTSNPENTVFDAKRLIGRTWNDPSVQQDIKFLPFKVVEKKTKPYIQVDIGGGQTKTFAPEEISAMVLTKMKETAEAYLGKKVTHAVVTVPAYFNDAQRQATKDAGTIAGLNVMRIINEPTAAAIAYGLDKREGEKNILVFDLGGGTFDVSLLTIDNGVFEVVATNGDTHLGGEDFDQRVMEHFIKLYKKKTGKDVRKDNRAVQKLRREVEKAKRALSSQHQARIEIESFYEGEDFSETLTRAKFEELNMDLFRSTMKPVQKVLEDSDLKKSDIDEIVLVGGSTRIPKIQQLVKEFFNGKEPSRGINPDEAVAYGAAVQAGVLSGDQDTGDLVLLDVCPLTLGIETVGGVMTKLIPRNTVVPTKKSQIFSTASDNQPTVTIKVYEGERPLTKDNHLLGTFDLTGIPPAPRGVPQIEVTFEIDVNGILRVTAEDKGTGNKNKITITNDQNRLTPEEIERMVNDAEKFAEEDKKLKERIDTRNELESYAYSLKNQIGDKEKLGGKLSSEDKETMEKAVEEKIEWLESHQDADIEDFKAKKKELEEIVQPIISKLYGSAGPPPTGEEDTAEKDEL
Description: Endothelial cells were cultured for 24 hours under hypoxic conditions in endothelial cell growth medium. Cells were removed by trypsin and incubated for 1 hour on ice with increasing concentrations of AdoPep1, Motif A and Motif C peptides. GRP78 polyclonal antibody (2 μg/100,000) was added to the cells for 2 hours on ice. Anti-goat FITC (Jackson ImmunoResearch) was added for 30 minutes on ice. IgG1-FITC was used as the isotype control. The samples were analyzed with a FACScan (Beckton Dickinson). […] FIG. 28d depicts the average percent binding of GRP78 to endothelial cells as a function of peptide amount as determined by 2 independent experiments.

[2] = tested on: endothelial cells (HUVEC); test: Migration of endothelial cells under hypoxia (Chemicon QCM 96-well Migration Assay); type: cell-based, human; details: 5 hours hypoxia, 10 ng/ml
Description: FIG. 6 is a graph depicting migration of endothelial cells under hypoxia conditions. Endothelial cells (25,000) were incubated in endothelial cells growth medium free supplements in the migration chamber. ADOPep1 (SEQ ID NO:2), 2 (SEQ ID NO:3) and 3 (SEQ ID NO:4) were added to the feeder tray of the migratory kit at 1, 10 and 100 ng/ml for 5 hours hypoxia. Results were determined by a fluorescence ELISA reader and expressed as increase in percentage migration in Relative fluorescence Units.
FIGS. 26a-b are graphs depicting induction of endothelial cell migration under hypoxia by the ADOPEP motifs. Endothelial cells were incubated for 5 hours under hypoxia conditions in the presence of increasing concentrations of ADOPep1 (red line), peptide motif A (dark blue line), peptide motif B (green line) or peptide motif C (light blue line) and the migration of endothelial cells was detected. FIG. 26a—experiment 1; FIG. 26b—experiment 2.
Endothelial cell migration was evaluated by the Chemicon QCM 96-well Migration Assay (Chemicon International, Calif., USA) according to manufacturer's instructions. This kit utilizes a membrane with an 8 μm pore size. Migratory cells on the bottom of the insert membrane are dissociated from the membrane when incubated with cell detachment buffer provided by the kit. […] For the migration assay, HUVEC from passage 3 were incubated in endothelial cell (EC) growth medium free of supplements. After trypsinization, 25,000 EC were incubated in the migration chamber. ADOPeps were added at concentrations of 1, 10 and 100 ng/ml in the feeder tray for chemoattractant migration assay. Time of incubation was 5 hours for endothelial cells under hypoxic conditions. Results were determined in a Fluorescent ELISA reader at 480/520 nm.

endothelial cells [3] = test: Inhibition of binding of biotinylated ADOPep1 to endothelial cells by motif peptides; parameters: species or system human; details: normoxia, peptides 0.01, 0.1 or 1 ng/ml, ADOPep1^Biot 2 μg/ml
Description: FIG. 23 is a graph depicting the inhibition of binding of ADOPep1^Biot (2 μg/ml) to endothelial cells by specific peptides corresponding to conserved motifs from the ADOPeps. Endothelial cells were incubated for 2 hours under normoxia conditions in the presence of increasing concentrations (0.01, 0.1 or 1 ng/ml) of peptides having the amino acid sequences corresponding to Motif A (HWRRP; SEQ ID NO:7), Motif B (HWRRA; SEQ ID NO:8), Motif C (AHLLP; SEQ ID NO:6) or non-biotinylated ADOPep1 (SEQ ID NO:2) and then were incubated for 1 hour with biotinylated ADOPep1 (2 μg/ml) and the binding of biotinylated ADOPep1 to endothelial cells was determined using HRP-streptavidin.

endothelial cells [4] = test: Hypoxia-induced apoptosis of endothelial cells (Annexin V FITC/PI FACS); type: cell-based, human; details: 24 hours hypoxia; for effect on hypoxia-induced apoptosis of endothelial cells: peptides 10 ng/ml
Description: FIG. 17 is a histogram depicting the effect of ADOPep1 on hypoxia-induced apoptosis of endothelial cells. Endothelial cells were exposed for 24 hours hypoxia in the presence of endothelial cell growth medium supplemented with 5% fetal calf serum (FCS), followed by incubation under hypoxia conditions with ADOPep1 (10 ng/ml) or anti-GRP78 antibody (100 ng/ml). Cells (100,000/tube) were incubated with Annexin-V FITC/PI for endothelial cell apoptosis determination. […] Similarly, anti-GRP78 antibody induced a reduction in apoptosis up to 32%.
FIGS. 24a-d are FACS analyses depicting hypoxia induced apoptosis. Endothelial cells were incubated for 24 hours under hypoxia conditions in the absence (FIG. 24a) or presence of 10 ng/ml of ADOPepe1 (FIG. 24b), peptide of Motif A (FIG. 24c) or peptide of motif C (FIG. 24d) and the level of apoptosis was determined using FACS analysis and the PI (shown on the Y axis)/Annexin V (shown on the X axis) markers.
FIG. 25 is a bar graph depicting the inhibition of hypoxia induced apoptosis by ADOPep 1, Motif A and Motif B. Endothelial cells were incubated for 24 hours under hypoxia conditions in the absence or presence of 10 ng/ml of ADOPepe1, Motif A, Motif B or motif C and the level of apoptosis was determined using FACS analysis and quantified as the percent of Annexin V and PI positive cells. The results represent average±standard deviation of 4 independent experiments.
FIGS. 33a-f are representative FACS analyses depicting a specific inhibition of hypoxia-induced apoptosis of endothelial cells by ADOPep1. Endothelial cells in Petri dishes were incubated for 24 hours with 5% FCS in supplement-free endothelial cell growth medium under normoxia (FIGS. 33a and d), exposed to 24 hours hypoxia (Figures c and f) or incubated under normoxia with 100 micromolar per 100,000 cells CoCl2 (FIGS. 33b and e), in the absence (FIGS. 33a-c) or presence (FIGS. 33d-f) of 10 ng/ml Adopep1 peptide (for 24 hours). Cells were trypsinized and immediately re-suspended in PBS with 5% FCS and 0.1% Na-azide. Samples containing 100,000 cells were tested for apoptosis using the Annexin-FITC (X axis) and propidium iodide (Y axis) kit (Bender Medsystems, Vienna, Austria), according to manufacturer's instructions. Results were analyzed by FACScan (Beckton Dickinson).
EC were incubated for 24 hours with 5% FCS in EC growth media in Petri dishes plates followed by 24 hours incubation under hypoxia conditions with ADOPep1 (10 ng/ml), anti GRP78 antibody (Santa Cruz Biotechnology, Calif., USA) (1 microgram/ml) or recombinant VEGF (10 ng/ml). The Annexin V FITC/PI detects the phosphatidylserin on the apoptotic cells using flow cytometry. Human Annexin V-FITC kit (Bender Medsystems, Vienna, Austria) was used for the measurement of EC apoptosis percentage following manufacturer's instructions. Samples were analyzed using a fluorescence activated cell sorter (FACScan Beckton Dickinson, Calif., USA).

GRP78 = GRP78 (Homo sapiens, UniProt P11021); test: Immune precipitation of endothelial cell lysate with biotinylated ADOPep1, PAGE, Western blot, mass spectrometry; type: binding; parameters: immune precipitation of endothelial cells lysate with biotinylated ADOPep1 under normoxia and hypoxia conditions; endogenous in cells; host or cells: HUVEC (lysate); details: normoxia and hypoxia
GRP78, sequence (P11021 19-654): as above
Description: HUVEC were seeded in 90 mm Petri dishes plates for 24 hours with complete Endothelial Cell Growth Medium (PromoCell. Heildelberg, Germany). Cells were washed twice with PBS and buffer lysate (50 mM Tris Cl (pH 8, 150 mM Na Cl, 0.02% Na azide, 0.1% SDS, 100 μg/ml PMSF, 1 μg/ml protease inhibitors, 1% NP-40) was added for 20 minutes on ice. After incubation, cells were scraped with a rubber policeman and transferred to a chilled microfuge tube. After centrifugation of lysate at 12,000 g for 2 minutes at 4° C., supernatant was transferred to a fresh microfuge tube and stored at −70° C.
Aliquots samples of lysates (500 μl) were incubated with 10 μg of biotinylated ADOPep1 for one hour at 4° C. by gently mixing. Streptavidin Sepharose beads (Amersham Biosciences, Uppsla, Sweeden) (50 μl) were added to the sample for a second incubation one hour at 4° C. by gently mixing. After then, sample was centrifuge for 20 seconds at 12,000 g and the pellet was saved and further washed 3 times. Finally the pellet was suspended in 100 μl of sample buffer for Western blot analysis. For ELISA, protein was eluted by 5 minutes incubation of the sample at room temperature in 1 ml of Tris-Glycin 0.2M (pH 2.2), followed by titration with 1M Tris (pH 9.1). […]

[5] = tested on: endothelial cells (HUVEC); test: Binding of biotinylated ADOPep to endothelial cells by FACS; parameters: species or system human; details: 5 micrograms per 100,000 cells
Description: FIG. 3 is a FACS analysis depicting the binding (in percentages) of biotinylated ADOPep1 (ADOPep1^Biot), an ADAM15 derived peptide (SEQ ID NO:2), to endothelial cells (EC) under normoxia. Biotinylated ADOPep1 at 0.05, 0.5 and 5 microgram/ml (μg/ml) were added to endothelial cells.
FIG. 4 is a FACS analysis depicting the binding (in total counts) of Biotinylated ADOPep1 to endothelial cells under normoxia and hypoxia conditions. […] X axis—Intensity of binding.
Human umbilical endothelial cells (HUVEC) were harvested by trypsin and 100,000 cells per sample were suspended in PBS+5% FCS+0.1% Na azide. Endothelial cells were either exposed for 5 hours to hypoxia or remained under normoxia conditions. Cells were stained for 2 hours on ice in dark with 0.05, 0.5, 5 μg/100,000 cells biotinylated ADOPeps. The cells were then washed twice with PBS, following which the cells were stained for 30 minutes with FITC-labeled Streptavidin (Jackson ImmunoResearch Laboratories, PA, USA). After washing, samples were analyzed using a fluorescence activated cell sorter (FACScan Beckton Dickinson, Calif., USA).

Row | inhibition of anti GRP78 binding to endothelial cells (in words) [1] | protein (receptor) bound by the peptide in endothelial cell lysate (GRP78) | Substance | migration of endothelial cells [2] | inhibition of the binding of ADOPep1^Biot to endothelial cells (endothelial cells [3]) | effect on hypoxia-induced apoptosis of endothelial cells (endothelial cells [4]) | effect on hypoxia-induced apoptosis of endothelial cells (endothelial cells [4]; listed as motif C) | percent apoptosis (PI/Annexin V) (endothelial cells [4]; FIGS. 24a-d, 10 ng/ml, hypoxia alone 79.3%) [%] | binding to endothelial cells under hypoxia versus normoxia [5]
1 | did not inhibit anti GRP78 binding | – | AHLLP [Motif C, 5 amino acid motif peptide without HWRR] | no significant effect on endothelial cell migration | moderate inhibition of binding | no effect on apoptosis | no effect on hypoxia induced apoptosis | 81.1 | –
2 | – | – | HWRRA [Motif B, 5 amino acid motif peptide] | induced endothelial cell migration | significant inhibition | capable of inhibiting the hypoxia induced apoptosis; also recorded: significant inhibition of hypoxia induced apoptosis | – | – | –
3 | – | GRP78 protein | biotinylated ADOPep1: biotinylated ADOPep1 (SEQ ID NO:2) (HWRRAHLLPRLP; also: biotinylated) | – | – | – | – | – | increased under hypoxia
